37 molecules from ChEMBL document CHEMBL4257451, “Synergism of fused bicyclic 2-aminothiazolyl compounds with polymyxin B against Klebsiella pneumoniae” (Medchemcomm, 2017) can be followed below.

SMILES strings stand for the structures.

Data set [1] relates to Klebsiella pneumoniae. As to the kind of experiment: Synergistic antibacterial activity against Klebsiella pneumoniae SIPI-KPN-1712 assessed as polymixin B MIC at 4 ug/ml by broth microdilution method (reference value: 32 ug/ml). In kind it is functional. A general note: Broth dilution looks for growth in wells or tubes with falling amounts of substance.
Data set [2] has as its system Klebsiella pneumoniae. As to the kind of experiment: Synergistic antibacterial activity against Klebsiella pneumoniae SIPI-KPN-1712 assessed as fractional Inhibitory concentration index in presence of polymixin B at 2 ug/ml by broth microdilution method. The data set is classed as functional.
In data set [3] the test system is Klebsiella pneumoniae. Briefly: Growth inhibition of Klebsiella pneumoniae SIPI-KPN-1712 by broth microdilution method. In kind it is organism-based. To be noted: in vitro.

As for `O=C(OC1CCCc2nc(Nc3ccc(F)cc3)sc21)n1ccnc1` (stereo unspecified), the MIC is 32 µg/mL with Klebsiella pneumoniae [1] and greater than 128 µg/mL in the data set on Klebsiella pneumoniae [3]. Besides, in the data set on Klebsiella pneumoniae [2], the “fractional inhibitory concentration index (FICI)” value stood at 1.03.

Take `OC1CCCc2nc(Nc3ccc4ccccc4c3)sc21` (stereo unspecified): the MIC was 16 µg/mL in the data set with Klebsiella pneumoniae [1] and greater than 128 µg/mL in the data set on Klebsiella pneumoniae [3]. Further, the “fractional inhibitory concentration index (FICI)” value with Klebsiella pneumoniae [2] came to 0.53.

In the case of `CCc1ccc(Nc2nc3c(s2)C(OC)CCC3)cc1` (stereo unspecified), the values for the MIC with Klebsiella pneumoniae [1] and with Klebsiella pneumoniae [3] were 32 µg/mL and greater than 128 µg/mL, respectively. Further, the “fractional inhibitory concentration index (FICI)” value in the data set with Klebsiella pneumoniae [2] turned out to be 1.03.

For `COC1CCCc2nc(Nc3ccc(C)cc3)sc21` (stereo unspecified), the MIC is 16 µg/mL in the data set with Klebsiella pneumoniae [1] and greater than 128 µg/mL in the data set with Klebsiella pneumoniae [3]. In the data set with Klebsiella pneumoniae [2], the “fractional inhibitory concentration index (FICI)” value is reported as 0.53.

In the case of `CCOC1CCCc2nc(Nc3ccc(C)cc3)sc21` (stereo unspecified), the results for the MIC with Klebsiella pneumoniae [1] and in the data set on Klebsiella pneumoniae [3] were 4 µg/mL and greater than 128 µg/mL, respectively. For the same molecule, in the data set on Klebsiella pneumoniae [2], the “fractional inhibitory concentration index (FICI)” value stood at 0.16.

As to `COc1ccc(Nc2nc3c(s2)C(OC)CCC3)cc1` (stereo unspecified), the MIC is 16 µg/mL in the data set with Klebsiella pneumoniae [1] and greater than 128 µg/mL against Klebsiella pneumoniae [3]. The “fractional inhibitory concentration index (FICI)” value in the data set on Klebsiella pneumoniae [2] is 0.53.

As to `COC1CCCc2nc(Nc3ccc(Oc4ccccc4C)cc3)sc21` (stereo unspecified), the MIC with Klebsiella pneumoniae [1] was 16 µg/mL; against Klebsiella pneumoniae [3], greater than 128 µg/mL. For the same molecule, the “fractional inhibitory concentration index (FICI)” value in the data set with Klebsiella pneumoniae [2] is reported as 0.53.

For the molecule `COCCOC1CCCc2nc(Nc3ccc(C)cc3)sc21` (stereo unspecified), the MIC with Klebsiella pneumoniae [1] was 32 µg/mL; against Klebsiella pneumoniae [3] it was greater than 128 µg/mL. For the same molecule, the “fractional inhibitory concentration index (FICI)” value in the data set with Klebsiella pneumoniae [2] is recorded as 1.03.

As for `Cc1ccc(Nc2nc3c(s2)C(OC(C)C)CCC3)cc1` (stereo unspecified), the MIC in the data set on Klebsiella pneumoniae [1] was 16 µg/mL; with Klebsiella pneumoniae [3], greater than 128 µg/mL. The “fractional inhibitory concentration index (FICI)” value in the data set on Klebsiella pneumoniae [2] is given as 0.53.

With `O=C(OC1CCCc2nc(Nc3ccc(Cl)cc3)sc21)n1ccnc1` (stereo unspecified), the MIC in the data set on Klebsiella pneumoniae [1] is 32 µg/mL; in the data set on Klebsiella pneumoniae [3], greater than 128 µg/mL. The “fractional inhibitory concentration index (FICI)” value in the data set on Klebsiella pneumoniae [2] worked out at 1.03.

As to `COC1CCCc2nc(Nc3ncccn3)sc21` (stereo unspecified), the values for the MIC in the data set on Klebsiella pneumoniae [1] and with Klebsiella pneumoniae [3] were 16 µg/mL and greater than 128 µg/mL, respectively. In the data set with Klebsiella pneumoniae [2], the “fractional inhibitory concentration index (FICI)” value was determined as 0.53.

In the case of `COC1CCCc2nc(Nc3cccc(F)c3)sc21` (stereo unspecified), the figures for the MIC in the data set on Klebsiella pneumoniae [1] and in the data set on Klebsiella pneumoniae [3] were 32 µg/mL and greater than 128 µg/mL, respectively. In addition, the “fractional inhibitory concentration index (FICI)” value in the data set with Klebsiella pneumoniae [2] amounted to 1.03.

As for `CCOC1CCCc2nc(Nc3ccc(Oc4ccccc4C)cc3)sc21` (stereo unspecified), the MIC with Klebsiella pneumoniae [1] was 32 µg/mL; in the data set on Klebsiella pneumoniae [3], greater than 128 µg/mL. Also, the “fractional inhibitory concentration index (FICI)” value in the data set with Klebsiella pneumoniae [2] is 1.03.

On to `CC(C)OC1CCCc2nc(Nc3ccc(Cl)cc3)sc21` (stereo unspecified), for which the results for the MIC with Klebsiella pneumoniae [1] and in the data set with Klebsiella pneumoniae [3] were 1 µg/mL and greater than 128 µg/mL, respectively. Moreover, the “fractional inhibitory concentration index (FICI)” value in the data set on Klebsiella pneumoniae [2] was 0.06.

`COC1CCCc2nc(Nc3ccc(Cl)cc3)sc21` (stereo unspecified): the MIC with Klebsiella pneumoniae [1] is 1 µg/mL; in the data set on Klebsiella pneumoniae [3], greater than 128 µg/mL. In addition, in the data set on Klebsiella pneumoniae [2], the “fractional inhibitory concentration index (FICI)” value was found to be 0.06.

For `CCOC1CCCc2nc(Nc3ccc(Br)cc3)sc21` (stereo unspecified), the MIC in the data set with Klebsiella pneumoniae [1] was 2 µg/mL; against Klebsiella pneumoniae [3], greater than 128 µg/mL. The “fractional inhibitory concentration index (FICI)” value in the data set on Klebsiella pneumoniae [2] stood at 0.09.

As to `CCOC1CCCc2nc(Nc3ccc(Cl)cc3)sc21` (stereo unspecified), the figures for the MIC with Klebsiella pneumoniae [1] and in the data set with Klebsiella pneumoniae [3] were 1 µg/mL and greater than 128 µg/mL, respectively. In the data set with Klebsiella pneumoniae [2], the “fractional inhibitory concentration index (FICI)” value was determined as 0.06.

`OC1CCCc2nc(Nc3ccc(C(F)(F)F)cc3)sc21` (stereo unspecified): the MIC with Klebsiella pneumoniae [1] is 16 µg/mL; with Klebsiella pneumoniae [3] it was greater than 128 µg/mL. For the same molecule, in the data set with Klebsiella pneumoniae [2], the “fractional inhibitory concentration index (FICI)” value was 0.53.

Turning to `O=C(OC1CCCc2nc(Nc3ccc(Cl)cn3)sc21)n1ccnc1` (stereo unspecified), the MIC was 16 µg/mL in the data set on Klebsiella pneumoniae [1] and greater than 128 µg/mL against Klebsiella pneumoniae [3]. Further, the “fractional inhibitory concentration index (FICI)” value in the data set with Klebsiella pneumoniae [2] is on record as 0.53.

`CCCCOC1CCCc2nc(Nc3ccc(Cl)cc3)sc21` (stereo unspecified): the figures for the MIC in the data set on Klebsiella pneumoniae [1] and in the data set with Klebsiella pneumoniae [3] were 16 µg/mL and greater than 128 µg/mL, respectively. Besides, in the data set with Klebsiella pneumoniae [2], the “fractional inhibitory concentration index (FICI)” value worked out at 0.53.

Consider `COC1CCCc2nc(Nc3c(F)cccc3F)sc21` (stereo unspecified), for which the MIC in the data set on Klebsiella pneumoniae [1] is 32 µg/mL; with Klebsiella pneumoniae [3], greater than 128 µg/mL. Besides, in the data set with Klebsiella pneumoniae [2], the “fractional inhibitory concentration index (FICI)” value is reported as 1.03.

With `COC1CCCc2nc(Nc3ccc(Oc4ccc(F)cc4)cc3)sc21` (stereo unspecified), the MIC was 32 µg/mL in the data set with Klebsiella pneumoniae [1] and greater than 128 µg/mL in the data set with Klebsiella pneumoniae [3]. The “fractional inhibitory concentration index (FICI)” value with Klebsiella pneumoniae [2] was 1.03.

As to `O=C(OC1CCCc2nc(Nc3ccc(C(F)(F)F)cc3)sc21)n1ccnc1` (stereo unspecified), the MIC with Klebsiella pneumoniae [1] was 16 µg/mL; in the data set on Klebsiella pneumoniae [3], greater than 128 µg/mL. In addition, in the data set on Klebsiella pneumoniae [2], the “fractional inhibitory concentration index (FICI)” value was 0.53.

With `CC(=O)c1ccc(Nc2nc3c(s2)C(O)CCC3)cc1` (stereo unspecified), the MIC is 16 µg/mL in the data set with Klebsiella pneumoniae [1] and greater than 128 µg/mL in the data set with Klebsiella pneumoniae [3]. In the data set on Klebsiella pneumoniae [2], the “fractional inhibitory concentration index (FICI)” value came out at 0.53.

In the case of `CCOC1CCCc2nc(Nc3ccc(Cl)cn3)sc21` (stereo unspecified), the MIC with Klebsiella pneumoniae [1] is 16 µg/mL; against Klebsiella pneumoniae [3], greater than 128 µg/mL. The “fractional inhibitory concentration index (FICI)” value with Klebsiella pneumoniae [2] was determined as 0.53.

As for `COC1CCCc2nc(Nc3ccc(C(C)(C)C)cc3)sc21` (stereo unspecified), the MIC in the data set with Klebsiella pneumoniae [1] was 16 µg/mL; in the data set with Klebsiella pneumoniae [3], greater than 128 µg/mL. Also, the “fractional inhibitory concentration index (FICI)” value in the data set with Klebsiella pneumoniae [2] is recorded as 0.53.

With `Clc1ccc(Nc2nc3c(s2)C(OC2CCCC2)CCC3)cc1` (stereo unspecified), the figures for the MIC in the data set with Klebsiella pneumoniae [1] and against Klebsiella pneumoniae [3] were 8 µg/mL and greater than 128 µg/mL, respectively. Besides, in the data set on Klebsiella pneumoniae [2], the “fractional inhibitory concentration index (FICI)” value stood at 0.28.

As to `COC1CCCc2nc(Nc3ccccc3)sc21` (stereo unspecified), the MIC with Klebsiella pneumoniae [1] is 32 µg/mL; against Klebsiella pneumoniae [3], greater than 128 µg/mL. For the same molecule, the “fractional inhibitory concentration index (FICI)” value in the data set with Klebsiella pneumoniae [2] was found to be 1.03.

With `CCCOC1CCCc2nc(Nc3ccc(F)cc3)sc21` (stereo unspecified), the MIC is 16 µg/mL in the data set on Klebsiella pneumoniae [1] and greater than 128 µg/mL in the data set on Klebsiella pneumoniae [3]. Further, in the data set with Klebsiella pneumoniae [2], the “fractional inhibitory concentration index (FICI)” value is recorded as 0.53.

In the case of `COc1cc(Nc2nc3c(s2)C(OC)CCC3)cc(OC)c1OC` (stereo unspecified), the MIC with Klebsiella pneumoniae [1] is 16 µg/mL; in the data set with Klebsiella pneumoniae [3], greater than 128 µg/mL. In addition, in the data set with Klebsiella pneumoniae [2], the “fractional inhibitory concentration index (FICI)” value turned out to be 0.53.

With `COC1CCCc2nc(Nc3cccc(C)c3)sc21` (stereo unspecified), the MIC in the data set on Klebsiella pneumoniae [1] is 32 µg/mL; in the data set with Klebsiella pneumoniae [3] it was greater than 128 µg/mL. In addition, the “fractional inhibitory concentration index (FICI)” value in the data set with Klebsiella pneumoniae [2] was determined as 1.03.

`CCOC1CCCc2nc(Nc3ncccn3)sc21` (stereo unspecified): the MIC with Klebsiella pneumoniae [1] was 16 µg/mL; with Klebsiella pneumoniae [3] it was greater than 128 µg/mL. Further, the “fractional inhibitory concentration index (FICI)” value in the data set with Klebsiella pneumoniae [2] was determined as 0.53.

For `COC1CCCc2nc(Nc3ccc(C(F)(F)F)cc3)sc21` (stereo unspecified), the MIC with Klebsiella pneumoniae [1] was 8 µg/mL; in the data set on Klebsiella pneumoniae [3], greater than 128 µg/mL. For the same molecule, the “fractional inhibitory concentration index (FICI)” value with Klebsiella pneumoniae [2] was 0.28.

As to `CCOC1CCCc2nc(Nc3ccc(F)cc3)sc21` (stereo unspecified), the values for the MIC with Klebsiella pneumoniae [1] and in the data set on Klebsiella pneumoniae [3] were 16 µg/mL and greater than 128 µg/mL, respectively. The “fractional inhibitory concentration index (FICI)” value in the data set with Klebsiella pneumoniae [2] was determined as 0.53.

For `O=C(OC1CCCc2nc(Nc3ccccc3)sc21)n1ccnc1` (stereo unspecified), the MIC in the data set with Klebsiella pneumoniae [1] was 16 µg/mL; in the data set on Klebsiella pneumoniae [3] it was greater than 128 µg/mL. Besides, the “fractional inhibitory concentration index (FICI)” value with Klebsiella pneumoniae [2] came to 0.53.

As for `COC1CCCc2nc(Nc3ccc(C(F)(F)F)cc3Cl)sc21` (stereo unspecified), the MIC was 4 µg/mL in the data set with Klebsiella pneumoniae [1] and greater than 128 µg/mL with Klebsiella pneumoniae [3]. Further, in the data set with Klebsiella pneumoniae [2], the “fractional inhibitory concentration index (FICI)” value came out at 0.16.

On to `COC1CCCc2nc(Nc3cccc(Br)c3)sc21` (stereo unspecified), for which the MIC with Klebsiella pneumoniae [1] was 16 µg/mL; in the data set on Klebsiella pneumoniae [3], greater than 128 µg/mL. Also, the “fractional inhibitory concentration index (FICI)” value with Klebsiella pneumoniae [2] stood at 0.53.
